Assay results from publication PMC10813393 (Biomolecules, 2023).

What was measured:
in vitro = format: cell-based; settings: African green monkey; VERO cells, 72 h exposure, CCK-8; read-out: Cytotoxicity (CC50)
Experimental: A CCK-8 assay (ab228554; Abcam, Cambridge, UK) was performed to evaluate the cytotoxicity of pure compounds. WST-8/CCK8 tetrazolium salt is reduced by cellular dehydrogenases to form an orange formazan product that is soluble in a tissue culture medium. The formazan produced is directly proportional to the number of living and metabolically active cells and is measured via absorbance at 460 nm. Therefore, VERO cells (2 × 10^4 cells/mL) were grown in 96-well microtiter plates at 37 °C in a 5% CO2 incubator for 24 h. Then, they were exposed to serial dilutions of L7OG CY, FA, and RA for 72 h and incubated with CCK8 tetrazolium salt for 4 h at 37 °C in a CO2 incubator. The absorbance was measured at 460 nm using a GloMax® Discover Microplate Reader (Promega, Madison, WI, USA), and the percentage of cellular viability was calculated and compared to untreated cells.
Commercially available cynarin (CY), rosmarinic acid (RA), folic acid (FA), and luteolin-7-O-glucuronide (L7OG) were used to prepare the respective stock solutions.
Specifically, L7OG was dissolved in DMSO to obtain a 5.5 mM solution, RA was dissolved in water to obtain an 8.0 mM solution, CY was dissolved in methanol to obtain a 4.7 mM solution, and FA was dissolved in ethanol to obtain an 8.7 mM solution.
Viability assay of natural compounds
VERO cells were exposed to different concentrations of L7OG, CY, FA, and RA for 72 h and incubated with CCK8 tetrazolium salt for 4 h before measuring the absorbance values in a microplate reader. The percentage of cellular viability was calculated and compared to untreated cells.
Figure S1. Cellular viability assay following treatment with different L7OG, CY, FA, and RA concentrations. VERO cells were incubated for […] with various concentrations of natural compounds, as reported in the material and methods section. Results represent the mean of three biologically independent experiments ± SD.
Table S1. Cytotoxicity (CC50) values (μM) of natural compounds on VERO cells.
(1 picture or pasted object on this page, not shown here)

[1] = target: recombinant SARS-CoV-2 3CL^pro (Severe acute respiratory syndrome coronavirus 2, UniProt P0DTD1); experiment: biochemical; format: biochemical; settings: for inhibition of the enzymatic activity of 3CL^pro (in words): judged from IC50 values; for IC50: luminogenic substrate, 60 min, read-out: IC50 for inhibiting SARS-CoV-2 3CL^pro
[2] = target: recombinant SARS-CoV-2 PL^pro (GST-PL^pro) (Severe acute respiratory syndrome coronavirus 2, UniProt P0DTD1); experiment: SARS-CoV-2 PLpro luminescent assay; format: biochemical; settings: for inhibition of PL^pro (in words): judged from IC50 values; for IC50: luminogenic substrate, 60 min, read-out: IC50 for inhibiting SARS-CoV-2 PL^pro
SARS-CoV-2 M^pro = settings: cited from earlier work

Row | SMILES | CC50 at 72 h (in vitro) [µM] | inhibition of the enzymatic activity of 3CL^pro (in words) [1] | IC50 [1] [µM] | inhibition of PL^pro (in words) [2] | IC50 [2] [µM] | IC50 (SARS-CoV-2 M^pro) [µM]
1 | O=C(/C=C/c1ccc(O)c(O)c1)O[C@@H]1C[C@@](OC(=O)/C=C/c2ccc(O)c(O)c2)(C(=O)O)C[C@@H](O)[C@@H]1O [CY, 1,3-dicaffeoylquinic acid] | 91.5 | no enzymatic inhibition | > 300 | – | – | –
2 | O=C(O)[C@H]1O[C@@H](Oc2cc(O)c3c(=O)cc(-c4ccc(O)c(O)c4)oc3c2)[C@H](O)[C@@H](O)[C@@H]1O [Compound L7OG, luteolin-7-O-glucuronide] | 55.7 | moderate inhibition | 170 | moderately inhibit | 153 | –
3 | Nc1nc(=O)c2nc(CNc3ccc(C(=O)N[C@@H](CCC(=O)O)C(=O)O)cc3)cnc2[nH]1 [FA, folic acid, reference compound] | 107 | moderate inhibition | 232 | moderately inhibit | 183 | –
4 | O=C(/C=C/c1ccc(O)c(O)c1)O[C@H](Cc1ccc(O)c(O)c1)C(=O)O [RA, rosmarinic acid] | 78.3 | no enzymatic inhibition | > 300 | – | > 300 | 6.84
